Results on one compound are retold here after patent publication US10195181B2, “Carboxamide derivatives” (Novartis AG, priority 2014, dated 2019).

The target in the experiment is Smurf-1 (Homo sapiens (Human), UniProt Q9HCE7). Put plainly: HECT E3 ligase autoubiquitinylation TR-FRET assay (Smurf-1). It counts as biochemical. The text has this:
To determine the HECT E3 ligase selectivity of the compounds, a panel of biochemical HECT E3 ligase autoubiquitinylation assays was employed (Smurf-1, Smurf-2, WWP1, WWP2, ITCH, Nedd4, Nedd4L and E6AP). The conjugation of ubiquitin to a protein substrate is a multistep process. In an initial ATP-requiring step, a thioester bond is formed between the carboxyl terminus of ubiquitin and an internal cystein residue of the ubiquitin-activating enzyme (E1). Activated ubiquitin is then transferred to a specific cystein residue of an ubiquitin-conjugating enzyme (E2). E2s donate ubiquitin to a HECT E3 ligase (E3) from which it is transferred to the substrate protein. HECT E3 ligases can auto-ubiquitinylate. This event is detected in the TR-FRET (Time-Resolved Fluorescence Resonance Energy Transfer) assay used in this panel. […] When these two fluorophores are brought together by a biomolecular interaction (in this case ubiquitinylation of the E3 ligase), a portion of the energy captured by the Cryptate during excitation is released through fluorescence emission at 620 nm, while the remaining energy is transferred to XL665. This energy is then released by XL665 as specific fluorescence at 665 nm. […]
After an incubation time of 45 min in the dark, the plates are transferred into the Pherastar fluorescence reader to measure the TR-FRET signal.

Sequence of Smurf-1 (Q9HCE7 whole entry): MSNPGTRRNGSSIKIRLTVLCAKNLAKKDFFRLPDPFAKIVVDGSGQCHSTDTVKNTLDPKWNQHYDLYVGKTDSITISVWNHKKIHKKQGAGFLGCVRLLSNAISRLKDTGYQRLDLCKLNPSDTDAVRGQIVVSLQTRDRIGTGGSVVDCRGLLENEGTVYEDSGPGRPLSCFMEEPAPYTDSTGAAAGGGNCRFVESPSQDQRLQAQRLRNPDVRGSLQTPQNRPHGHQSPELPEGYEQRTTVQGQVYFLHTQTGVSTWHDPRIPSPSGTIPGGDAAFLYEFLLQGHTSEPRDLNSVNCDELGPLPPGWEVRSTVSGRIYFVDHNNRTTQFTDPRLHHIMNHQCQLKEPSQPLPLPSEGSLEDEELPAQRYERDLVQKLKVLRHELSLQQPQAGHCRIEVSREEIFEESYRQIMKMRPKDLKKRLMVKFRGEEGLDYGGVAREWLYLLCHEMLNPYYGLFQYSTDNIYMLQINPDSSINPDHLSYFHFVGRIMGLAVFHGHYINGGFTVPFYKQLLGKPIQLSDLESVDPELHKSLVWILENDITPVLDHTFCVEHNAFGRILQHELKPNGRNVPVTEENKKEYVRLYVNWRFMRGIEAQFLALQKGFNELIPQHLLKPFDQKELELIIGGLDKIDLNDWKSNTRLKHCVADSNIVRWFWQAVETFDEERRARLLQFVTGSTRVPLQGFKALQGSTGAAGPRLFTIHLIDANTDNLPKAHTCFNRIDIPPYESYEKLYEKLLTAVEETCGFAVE

On to `Cc1c(C(=O)Nc2c(C)n(C)n(C(C)C)c2=O)noc1[C@@H]1CCC[C@H](C(C)(C)C)O1` (mixture of isomers) [Example 17, 5-((2R,6S)-6-(tert-butyl)tetrahydro-2H-pyran-2-yl)-N-(2-isopropyl-1,5-dimethyl-3-oxo-2,3-dihydro-1H-pyrazol-4-yl)-4-methylisoxazole-3-carboxamide and 5-((2S,6R)-6-(tert-butyl)tetrahydro-2H-pyran-2-yl)-N-(2-isopropyl-1,5-dimethyl-3-oxo-2,3-dihydro-1H-pyrazol-4-yl)-4-methylisoxazole-3-carboxamide], for which half-maximal inhibition (IC50) was put at 0.98 µM.
